PubChem BioAssay (NCI)
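Tested at 5 concentrations; 48 h exposure; 96-well plates; endpoints linearly interpolated, else capped at highest concentration. GI50 marks 50% less growth. TGI marks complete inhibition of growth.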

The compounds below were run on HS 578T breast (assay: inhibition of tumour cell growth, NCI panel, 48 h).

Structure (SMILES) | TGI [µM]
Clc1cccc(C2ON=C(c3ccccc3)N2C23CC4CC(CC(C4)C2)C3)c1Cl (stereo not given) | > 10
CNc1ccc2c(c1)Cc1ccccc1-2 | 91.5
CCN(CC(=O)O)CC(=O)O | > 100
CCOC(=O)c1csc(NC(=O)CCCC#N)n1 | > 100
CC(C)(C)c1ccc2c(c1)OCc1n[nH]c(n1)COc1cc(C(C)(C)C)ccc1OCCOCCO2 | 9.16
CCNC(=S)N/N=C/c1ccccn1 | > 100
COc1ccc(CCCCl)c(C2=NCCc3ccccc32)c1 | > 100
O=C1NN=C(c2c[nH]c3ccccc23)CC1NCc1ccccc1 (stereo not given) | > 100
O=C(CN=C(CN(c1ccccc1)c1ccccc1)Oc1c(Cl)cc(Cl)cc1Cl)n1cnc2ccccc21 | > 100
C=C1CC=CC(C)(C)C1C/C=C(\C)C(O)CBr (stereo not given) | > 100
O=C(O)c1cc2ccccc2c(S(=O)(=O)O)c1O | > 100
CCc1cc(=O)n(/C(C)=C/c2ccccc2)n1C | > 100
Cc1cccc(NC(Nc2cccc(C)c2)=C(C(Cl)=C(Cl)Cl)[N+](=O)[O-])c1 | 11.2
C/C(=N\Nc1nc2ccccc2s1)c1cccnn1 | 44.1
COC(=O)C1=C(C(=O)OC)C2(C)CCC(=O)C1O2 (stereo not given) | > 10
FC(F)=C(c1ccc(-c2ccc(Cl)cc2)cc1)C(F)(F)F | 68.7
Nc1n[nH]c2ccccc12 | > 100
COC(=O)[C@H]1C=C[C@H](OC2OC(COC(C)=O)C(OC(C)=O)C(OC(C)=O)C2OC(C)=O)n2c(=O)n(-c3ccccc3)c(=O)n21 (stereo not given in full) | 9.59
N/C(CSCCSC/C(N)=N/O)=N\O | > 100

Each compound was assayed on DLD-1 colon (assay: inhibition of tumour cell growth, NCI panel, 48 h).

Structure (SMILES) | TGI [µM]
CCOC(=O)C(NC(=O)c1ccc(N=NN(C)C)cc1)C(C)C (stereo not given) | > 100
COc1cc(CCCOC2OC(COC3OCC(O)C(O)C3O)C(O)C(O)C2O)cc2cc(-c3ccc4c(c3)OCO4)oc12 (stereo not given) | > 175
c1ccc([P+](Cc2csnn2)(c2ccccc2)c2ccccc2)cc1 | > 100
CCC1(CC)C(=O)NC(=S)N=C1N | > 100
O=C(NN1C(=O)CSC1c1ccc(Cl)c(Cl)c1)c1ccncc1 (stereo not given) | > 100
O=c1cc(-c2ccccc2F)[nH]c2cc3c(cc12)OCO3 | 2.82
CCOC(=O)C(C)NC(=O)N(C)C12CC3CC(CC(C3)C1)C2 (stereo not given) | > 79.3
O=c1c2cc3c(=O)n(CCc4ccccc4CO)c(=O)c3cc2c(=O)n1CCc1ccccc1CO | > 100

Each compound was assayed on XF 498 CNS (assay: inhibition of tumour cell growth, NCI panel, 48 h).

Structure (SMILES) | TGI [µM]
COc1cc(CCCOC2OC(COC3OCC(O)C(O)C3O)C(O)C(O)C2O)cc2cc(-c3ccc4c(c3)OCO4)oc12 (stereo not given) | > 175
c1ccc([P+](Cc2csnn2)(c2ccccc2)c2ccccc2)cc1 | > 100
CCC1(CC)C(=O)NC(=S)N=C1N | > 100
O=C(NN1C(=O)CSC1c1ccc(Cl)c(Cl)c1)c1ccncc1 (stereo not given) | > 100
O=c1cc(-c2ccccc2F)[nH]c2cc3c(cc12)OCO3 | 91.7
CCOC(=O)C(C)NC(=O)N(C)C12CC3CC(CC(C3)C1)C2 (stereo not given) | 453
O=c1c2cc3c(=O)n(CCc4ccccc4CO)c(=O)c3cc2c(=O)n1CCc1ccccc1CO | > 100

Each compound was assayed on SF-539 CNS (assay: inhibition of tumour cell growth, NCI panel, 48 h).

Structure (SMILES) | TGI [µM] | GI50 [µM]
CCOC(=O)C(NC(=O)c1ccc(N=NN(C)C)cc1)C(C)C (stereo not given) | > 100 | –
COc1cc(CCCOC2OC(COC3OCC(O)C(O)C3O)C(O)C(O)C2O)cc2cc(-c3ccc4c(c3)OCO4)oc12 (stereo not given) | > 175 | –
c1ccc([P+](Cc2csnn2)(c2ccccc2)c2ccccc2)cc1 | > 100 | –
COc1cc2nc(-c3c(F)cccc3F)n(Cc3c(F)cccc3F)c2cc1Cc1c(F)cccc1F | > 100 | –
O=C(/C=C1\C[C@H]2C=Nc3ccccc3C(=O)N2C1)NCCCCCNC(=O)/C=C1\C[C@H]2C=Nc3ccccc3C(=O)N2C1 | > 49.9 | –
COc1cc2c(cc1O)CC[n+]1cc3c(OC)c(OC)ccc3cc1-2 | > 100 | –
CC[P+](C#Cc1ccccc1)(c1ccccc1)c1ccccc1 | 4.01 | –
CC(C)Cc1c(C#N)c(C#N)c(N)n1Cc1ccccc1 | > 100 | –
Nc1nc(Nc2ccc(OCc3cccc(F)c3)cc2)c2c(n1)[nH]c1ccc(O)cc12 | 3.31 | 1.79
CCC1(CC)C(=O)NC(=S)N=C1N | > 100 | –
O=c1oc2ccccc2c2nc3ccccc3cc12 | 27.4 | –
CCCC[C@@H]1CCN2C[C@@H](O)[C@@H](O)[C@H]2[C@@H]1O | > 100 | –
O=C(NN1C(=O)CSC1c1ccc(Cl)c(Cl)c1)c1ccncc1 (stereo not given) | > 100 | –
Clc1cccc(C2ON=C(c3ccccc3)N2C23CC4CC(CC(C4)C2)C3)c1Cl (stereo not given) | > 10 | –
CNc1ccc2c(c1)Cc1ccccc1-2 | > 100 | –
CCN(CC(=O)O)CC(=O)O | > 100 | –
CCOC(=O)c1csc(NC(=O)CCCC#N)n1 | > 100 | –
O=c1cc(-c2ccccc2F)[nH]c2cc3c(cc12)OCO3 | 0.357 | –

Structure (SMILES) | TGI [µM] | GI50 [µM]
CC(C)(C)c1ccc2c(c1)OCc1n[nH]c(n1)COc1cc(C(C)(C)C)ccc1OCCOCCO2 | 21.5 | –
CCNC(=S)N/N=C/c1ccccn1 | 29.7 | –
COc1ccc(CCCCl)c(C2=NCCc3ccccc32)c1 | > 100 | –
O=C1NN=C(c2c[nH]c3ccccc23)CC1NCc1ccccc1 (stereo not given) | > 100 | –
O=C(CN=C(CN(c1ccccc1)c1ccccc1)Oc1c(Cl)cc(Cl)cc1Cl)n1cnc2ccccc21 | > 100 | –
C=C1CC=CC(C)(C)C1C/C=C(\C)C(O)CBr (stereo not given) | > 100 | –
CCOC(=O)C(C)NC(=O)N(C)C12CC3CC(CC(C3)C1)C2 (stereo not given) | > 500 | –
O=C(O)c1cc2ccccc2c(S(=O)(=O)O)c1O | > 100 | –
O=c1c2cc3c(=O)n(CCc4ccccc4CO)c(=O)c3cc2c(=O)n1CCc1ccccc1CO | > 100 | –
CCc1cc(=O)n(/C(C)=C/c2ccccc2)n1C | > 100 | –
Cc1cccc(NC(Nc2cccc(C)c2)=C(C(Cl)=C(Cl)Cl)[N+](=O)[O-])c1 | 23.4 | –
C/C(=N\Nc1nc2ccccc2s1)c1cccnn1 | 17.7 | –
COC(=O)C1=C(C(=O)OC)C2(C)CCC(=O)C1O2 (stereo not given) | > 10 | –
FC(F)=C(c1ccc(-c2ccc(Cl)cc2)cc1)C(F)(F)F | 45.3 | –
Nc1n[nH]c2ccccc12 | > 100 | –
COC(=O)[C@H]1C=C[C@H](OC2OC(COC(C)=O)C(OC(C)=O)C(OC(C)=O)C2OC(C)=O)n2c(=O)n(-c3ccccc3)c(=O)n21 (stereo not given in full) | 4.44 | –
N/C(CSCCSC/C(N)=N/O)=N\O | > 100 | –
